Type in all cases: cell-based, chinesische Hamster
In assay [1] the test system is CHO-Zellen. Kind of assay: t-PA production in transformed CHO cells, medium with 7.5% FKS, supernatant, direct chromogenic assay (DCA). The note with it: for Stimulierung der t-PA-Produktion: after 24 h. From the text:
(§1) Der Vektor für die t-PA-Produktion wurde in einem Subklon, CHO-K1-DUX B11, integriert (Urlaub et al., Proceedings of the National Academy of Science, USA, 77: 4216-4220, 1980). Diese Zell-Linie, eine Dihydrofolat Reduktase negative Mutante (DHFR-), ist für eine DHFR-abhängige Selektion der transfizierten Zellklone geeignet. Der Vektor für die humane c-DNA kann ein bekannter Plasmid-Vektor pBR-322 oder deren Abkömmling von Escherichia coli sein. Die Promotorregion für das in Frage kommende Gen und für das DHFR-Gen stammt aus SV 40 und die Terminationsregion für beide Gene von einem Hepatitis B-Oberflächenantigen. In den Beispielen wurden CHO-K1-DUX B11-Zellen, die durch die Plasmide pETPER oder pEPEFR transformiert sind, verwendet (siehe EP-A 0117059).
(§2) Die Zellkulturen werden bei 37°C in einem Hereaus-Brutschrank inkubiert und mit einem Kohlendioxid-Luftgemisch von 7,5% CO₂ in einer relativen Luftfeuchtigkeit von 100% belüftet. Je nach Verfahrensansatz werden unterschiedliche Kulturgefäße benutzt: Spinnergefäße für 100-1000 ml Medium, Roux-Schalen (Nunc) 175 cm² (70-100 ml Medium), 75 cm² (30-50 ml Medium), 25 cm² (7-10 ml Medium) und Mehrfachkulturschalen von Costar mit 2 cm² für 1 ml Kulturen. Für die Stammhaltung werden die Zellen in einer Dichte von 0,2-0,3 x 10⁶ Zellen/ml eingesetzt und alle 2-3 Tage subkloniert.
(§3) Die Protein-Produktion stimulierenden Substanzen können zu den verschiedenen Zeitpunkten jeweils in einer 1:100 Verdünnung zugegeben werden, d.h. sie wurden zuerst in Medium gelöst oder, wenn sie schwerlöslich sind, erst in Äthylalkohol gelöst und danach in Medium zugesetzt und dann das diese Substanz enthaltende Medium dem zellenthaltenden Medium im Verhältnis 1:100 v/v zugegeben.
(§4) In den folgenden Beispielen wurden, um die Stimulierung der t-PA-Synthese hervorzurufen, Zellen einer exponentiell wachsenden Kultur entnommen und in Plastikröhrchen (Falcon) 10 Min. bei 1000 x g in einer Beckmann T 3-6 Zentrifuge abzentrifugiert. Nach Dekantieren des Überstandes wurde das Zellpellet mit frischem Medium resuspendiert.
Für die Produktion von t-PA in serumhaltigem Medium wurde als frisches Medium F12/DMEM + 7,5% FKS + Gentamycin verwendet. Die resultierende Suspension kann in 2 cm² 24 Wells-Platten bei einer Zelldichte von 0,2-0,3 x 10⁶ Zellen/ml angesetzt werden.
(§5) Aliquots von Zellüberständen und Zellextrakten wurden zu verschiedenen Zeitpunkten abgenommen bzw. hergestellt. Die Messung der Proben erfolgte entweder sofort oder nach Aufbewahrung bei -20°C mit folgenden Methoden:
Von dem synthetischen Peptidsubstrat S-2288 (D-H-Ile-Pro-Arg-p-Nitroanilin) der Firma Kabi Diagnostica wird durch das t-PA p-Nitroanilin als Reaktionsprodukt gebildet. Die Aktivität von t-PA ist zur Bildung von p-Nitroanilin proportional, die bei […], 37°C, gemessen wird.
Die spektrophotometrische Bestimmung der Enzymkinetik wurde mit einem ACP-5010-Analysengerät der Firma Eppendorf automatisch durchgeführt.
Die Aktivität des Enzyms wurde anhand dieses vorgegebenen Standards berechnet. Eine t-PA-Standardreihe von 1-15 µg/ml wurde mit einem Laborstandard hergestellt, der zu 72% aus 1-kettigem Material besteht.
Die Substratlösung (100 mM Tris/106 mM NaCl) wurde in einer Konzentration von 50 mM eingesetzt.

The test system of assay [2] is CHO-Zellen. Kind of assay: t-PA production in transformed CHO cells, medium and determination method not stated. The note with it: 10 mM; for activation at 10000 µM: CHO.
Source text: as §1, §2, §3, §4
Aliquots von Zellüberständen und Zellextrakten wurden zu verschiedenen Zeitpunkten abgenommen bzw. hergestellt. Die Messung der Proben erfolgte entweder sofort oder nach Aufbewahrung bei -20°C mit folgenden Methoden: […]

The test system of assay [3] is CHO-Zellen. Kind of assay: t-PA production in transformed CHO cells, serum-free medium (DCA or determination method not given).
Source text: Diese Zell-Linie, eine Dihydrofolat Reduktase negative Mutante (DHFR-), ist für eine DHFR-abhängige Selektion der transfizierten Zellklone geeignet. […] Die Promotorregion für das in Frage kommende Gen und für das DHFR-Gen stammt aus SV 40 und die Terminationsregion für beide Gene von einem Hepatitis B-Oberflächenantigen.
Im folgenden Beispiel wird ein nachseziertes DMEM/Ham's F 12 Medium (1:1) (Gibco) als serumfreies Medium verwendet. Als Zusatz wird fötales Kälberserum (FKS) in einer Konzentration von 7,5% oder 1-2% verwendet.
as §2, §3, §4
Für die Produktion von t-PA in serumfreiem Medium wurden die Zellen zuvor 3-4 Tage in einem Medium von 1-2% FKS adaptiert, wieder abzentrifugiert und das Zellpellet in serumfreiem Medium resuspendiert und anschließend in 2 cm² 24 Wells-Platten in einer Zelldichte von 0,4-0,5 x 10⁶ Zellen/ml überführt.
as §5
Die Aktivität des Enzyms wurde anhand dieses vorgegebenen Standards berechnet.

The mark [4] stands for this setting: Table 3, mean ± SE, n = 3-24, production runs of 3 to 4 days, acids added day 0 to 3, 1 ml supernatant vs control (0%), 7,5% FKS.
The mark [5] stands for this setting: Table 3, single sample, 1 ml supernatant vs control (0%), 7,5% FKS, its concentration, addition and sampling day in brackets in Tables 3/3A.
Setting [6] is: Table 10, 7,5% FKS, bracketed value = concentration of the single sample.
Setting [7] is: Table 10, mean ± SE, runs of 4 days, added day 1, sampled days 2-4, 7,5% FKS, 1 ml supernatant vs control (0%).
Setting [8] is: Table 10, single sample (added day 1, sampled day 4), 7,5% FKS, 1 ml supernatant vs control (0%).
Where [9] appears, read: Table 3, stimulation of t-PA synthesis, medium with 7,5% FKS, bracketed value = concentration of the single (maximum) sample.
The mark [10] stands for this setting: Table 4, Applikationstag 0, after 48 h growth, 7,5% FKS, 1 mM or 5 mM, 1 ml supernatant vs control (0%), mean ± SE.
The mark [11] stands for this setting: Table 4, Applikationstag 1, after 48 h growth, 7,5% FKS, 1 mM or 5 mM, 1 ml supernatant vs control (0%), mean ± SE.
The mark [12] stands for this setting: Table 7, mean ± SE, n = 4-9, runs of 4 days, acids added day 0, 7,5% FKS, 1 ml supernatant vs control (0%).
The mark [13] stands for this setting: Table 7, single sample (added day 0, sampled day 2), 7,5% FKS, 1 ml supernatant vs control (0%).
Setting [14] is: Table 8, 7,5% FKS, bracketed value = concentration of the single sample.
The mark [15] stands for this setting: Table 8, mean ± SE, n = 6-19, runs of 3 days, added day 0 to 2, 7,5% FKS, 1 ml supernatant vs control (0%).
Setting [16] is: Table 8, single sample, 7,5% FKS, 1 ml supernatant vs control (0%).

Experimental findings from patent publication EP0315782A2, “Method for the production of proteins” (priority 1987, dated 1989) are described below.

Read-outs that look alike come from different tables or passages of the source.

For `O=CO` [Ameisensäure, reference compound], the “% Steigerung der t-PA-Synthese Durchschnitt” value in assay [1] (setting [4]) is listed as 6,5 ± 0,9%. The “% Steigerung der t-PA-Synthese Maximum” value in assay [1] (setting [5]) is reported as 7,4%. The “optimaler Dosisbereich” value in assay [1] (Table 3, stimulation of t-PA synthesis, medium with 7,5% FKS) worked out at 100 µM.

With `O=C1O[C@H]([C@@H](O)CO)C(O)=C1O` [Ascorbinsäure], in assay [2] (duration of effect), the “Wirkung auf die t-PA-Produktion hält an” value came to 72 h. Further, in assay [2] (application day 0, after 24 h (Abb. 14), read-out: Steigerung der t-PA-Synthese), the activation at 10000 µM was determined as 15.2%.

In the case of `CCCC(=O)OCC[N+](C)(C)C.[Br-]` [BCB, Butyrylcholinbromid], in assay [1] (setting [6]), the “optimaler Dosisbereich” value is 5-10 mM (2.5 mM). For the same compound, the “% Steigerung der t-PA-Synthese Durchschnitt” value in assay [1] (setting [7]) was 29,1 ± 4,4%. Also, in assay [1] (setting [8]), the “% Steigerung der t-PA-Synthese Maximum” value is 49,6%.

As for `CCCC(=O)OCC[N+](C)(C)C.[Cl-]` [BCC, Butyrylcholinchlorid], the “optimaler Dosisbereich” value in assay [1] (setting [6]) is 5-10 mM ( 10 mM). Besides, the “% Steigerung der t-PA-Synthese Durchschnitt” value in assay [1] (setting [7]) is 38,8 ± 4,4%. Further, the “% Steigerung der t-PA-Synthese Maximum” value in assay [1] (setting [8]) is 63,9%.

For `CCCC(=O)O` [Buttersäure], in assay [1] (setting [4]), the “% Steigerung der t-PA-Synthese Durchschnitt” value is 41,9 ± 3,8%. Moreover, in assay [1] (setting [5]), the “% Steigerung der t-PA-Synthese Maximum” value was 68,3%. In assay [1] (setting [9]), the “optimaler Dosisbereich” value is reported as 1-5 mM ( 1 mM). For the same compound, the “Steigerung der t-PA-Produktion” value in assay [1] (setting [10]) is reported as 33,0 ± 5,4%; in assay [1] (setting [11]) it was 40,2 ± 12,2%. For the same compound, in assay [1] (medium with 7,5% FKS (Abb. 7)), the “Stimulierung der t-PA-Produktion” value is 18,1 ± 5,7%. The “t-PA-Synthese, bezogen auf 1 x 10⁶ Zellen” value in assay [3] (serum-free medium (Abb. 13)) was more than 50 µg/ 1 x 10⁶ Zellen.

Take `CC(=O)C=C(C)CC(C)(C)O` [DHO, 6-Hydroxy-4,6-Dimethyl-3-hepten-2-on]: the “t-PA Produktion nach der Behandlung” value in assay [3] (after 144 h) is “erhöht”.

With `CCCCCc1oc(CCCCCCCCC(=O)O)c(C)c1C` [Furanfettsäure], in assay [1] (setting [12]), the “% Steigerung der t-Pa-Synthese Durchschnitt” value is recorded as 19,0 ± 3,2%. Also, in assay [1] (setting [13]), the “% Steigerung der t-Pa-Synthese Maximum” value was 32,1%.

Turning to `N[C@@H](CCC(=O)N[C@@H](CS)C(=O)NCC(=O)O)C(=O)O` [Glutathion], in assay [1] (setting [14]), the “optimaler Dosisbereich” value is recorded as 1-10 µM (10µM). Also, the “% Steigerung der t-Pa-Synthese Durchschnitt” value in assay [1] (setting [15]) was 16,0 ± 2,0%. The “% Steigerung der t-Pa-Synthese Maximum” value in assay [1] (setting [16]) is given as 30,6%. The “effektiver Konzentrationsbereich” value in assay [1] (text b134) lay in the range of 1 to 10 µM.

`CC(C)C(=O)O` [Isobuttersäure]: in assay [1] (setting [4]), the “% Steigerung der t-PA-Synthese Durchschnitt” value was 16.6 ± 2,8%. For the same compound, the “% Steigerung der t-PA-Synthese Maximum” value in assay [1] (setting [5]) is 32,9%. Further, the “optimaler Dosisbereich” value in assay [1] (setting [9]) is on record as 0,6-10 mM (10 mM). In addition, the “Steigerung der t-PA-Produktion” value in assay [1] (setting [10]) is recorded as 20,1 ± 10,7%; in assay [1] (setting [11]), 25,3 ± 5,1%. Also, the Produktionssteigerung erst nach in assay [1] (onset of the increase, medium with 7,5% FKS (Abb. 7)) was 48 h.

Take `CC(C)CC(=O)O` [Isovaleriansäure]: the “% Steigerung der t-PA-Synthese Durchschnitt” value in assay [1] (setting [4]) was 18,7 ± 2,4%. Besides, the “% Steigerung der t-PA-Synthese Maximum” value in assay [1] (setting [5]) was 39,3%. The “optimaler Dosisbereich” value in assay [1] (setting [9]) is recorded as 1-20 mM ( 5 mM). Moreover, the “Steigerung der t-PA-Produktion” value in assay [1] (setting [10]) is reported as 17,2 ± 1,0%; in assay [1] (setting [11]) it was 19,4 ± 1,5%; in assay [1] (day 4, medium with 7,5% FKS (Abb. 7)), 8,5%. For the same compound, the “Stimulierung der t-PA-Produktion” value in assay [1] (medium with 7,5% FKS (Abb. 7)) is 24,8 ± 0,5%.

`N[C@@H](CS)C(=O)O` [L-Cystein]: the “optimaler Dosisbereich” value in assay [1] (setting [14]) is recorded as 1-10 mM ( 1mM). In assay [1] (setting [15]), the “% Steigerung der t-Pa-Synthese Durchschnitt” value is listed as 20,9 ± 3,4%. Also, in assay [1] (setting [16]), the “% Steigerung der t-Pa-Synthese Maximum” value was 41,4%. The “Maximalwert des Steigerungseffektes erreicht nach” value in assay [1] (time to maximal effect (Abb. 15)) worked out at 48 h.

Take `CC(O)CC1CCC(C(C)C(=O)O)O1` (stereo not drawn) [Nonactinsäure]: in assay [1] (setting [12]), the “% Steigerung der t-Pa-Synthese Durchschnitt” value is 30,3 ± 6,5%. In addition, the “% Steigerung der t-Pa-Synthese Maximum” value in assay [1] (setting [13]) is reported as 58,3%.

`O=C(O)CSCC(=O)O` [Thiodiglykolsäure]: in assay [1], the “% Steigerung der t-Pa-Synthese Durchschnitt” value is listed as 18,0 ± 3,8%, the “% Steigerung der t-Pa-Synthese Maximum” value was 31,0% and the “optimaler Dosisbereich” value stood at 1000 µM.

As for `O=C(O)C(O)C(O)C(=O)O` (stereo not drawn) [Weinsäure], in assay [2] (read-out: Steigerung der t-PA-Synthese gegenüber der Kontrolle), the activation at 10000 µM stood at 10.3%.
